From PubChem BioAssay (NCI)
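96-well plates; 48 h exposure; 5 concentrations. Endpoints by linear interpolation between flanking doses. Not reached: highest tested concentration assigned. Abbreviation: GI50, concentration required for 50% inhibition of growth. TGI marks complete inhibition of growth.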 Where a SMILES comes first, the peptide text is derived from it. [ ]: non-standard residue; d: D form. The star is where a group is joined. X28 = COC1=CC(=O)N(C(=O)[C@@H](O*)C(C)C)[C@H]1Cc1ccccc1; Bn2Val = CC(C)[C@@H](C(=O)*)N(Cc1ccccc1)Cc1ccccc1; NMeV = CN[C@H](C(=O)O)C(C)C; dNMeA = CN[C@H](C)C(=O)O

Legend:
Experiment in all cases: DTP human tumour cell line panel, 48 h
NCI-H522 lung = system: NCI-H522 lung
U251 CNS = system: U251 CNS
RXF 393 renal = system: RXF 393 renal
M14 melanoma = system: M14 melanoma
OVCAR-8 ovarian = system: OVCAR-8 ovarian
NCI-H226 lung = system: NCI-H226 lung
UACC-257 melanoma = system: UACC-257 melanoma
SN12C renal = system: SN12C renal
ACHN renal = system: ACHN renal
A498 renal = system: A498 renal

## COC1=CC(=O)N(C(=O)[C@@H](OC(=O)[C@@H](C)N(C)C(=O)[C@@H]2CCCN2C(=O)[C@H](C(C)C)N(C)C(=O)[C@@H](NC(=O)[C@H](C(C)C)N(Cc2ccccc2)Cc2ccccc2)C(C)C)C(C)C)[C@H]1Cc1ccccc1 (Bn2Val-V[NMeV]P[dNMeA]-X28)
NCI-H522 lung
  TGI: > 100 µM
U251 CNS
  TGI: > 100 µM
RXF 393 renal
  TGI: > 100 µM
M14 melanoma
  TGI: > 100 µM
OVCAR-8 ovarian
  TGI: > 100 µM
NCI-H226 lung
  TGI: > 100 µM
UACC-257 melanoma
  TGI: > 100 µM
SN12C renal
  TGI: > 100 µM
ACHN renal
  TGI: > 100 µM
A498 renal
  TGI: > 100 µM

## c1ccc(C(c2cccc3c2ccc2ccccc23)C(c2ccccc2)c2cccc3c2ccc2ccccc23)cc1 (configuration not stated)
NCI-H522 lung
  TGI: > 100 µM
U251 CNS
  TGI: > 100 µM
RXF 393 renal
  TGI: > 100 µM
M14 melanoma
  TGI: > 100 µM
OVCAR-8 ovarian
  TGI: > 100 µM
NCI-H226 lung
  TGI: > 100 µM
UACC-257 melanoma
  TGI: > 100 µM
SN12C renal
  TGI: > 100 µM
ACHN renal
  TGI: > 100 µM
A498 renal
  TGI: > 100 µM

## C=CCNc1nc(O)c(/C=C2\C=Nc3ncccc32)s1
NCI-H522 lung
  GI50: 0.725 µM
  TGI: 4.85 µM
U251 CNS
  GI50: 2.07 µM
  TGI: 4.35 µM
RXF 393 renal
  GI50: 2.07 µM
  TGI: 4.25 µM
M14 melanoma
  GI50: 3.45 µM
  TGI: 13.1 µM
OVCAR-8 ovarian
  GI50: 3.41 µM
  TGI: 10.3 µM
NCI-H226 lung
  GI50: 1.99 µM
  TGI: 21.6 µM
UACC-257 melanoma
  GI50: 9.12 µM
  TGI: 21.2 µM
SN12C renal
  GI50: 2.1 µM
  TGI: 5.52 µM
ACHN renal
  GI50: 2.21 µM
  TGI: > 100 µM
A498 renal
  GI50: 1.5 µM
  TGI: 3.7 µM

## Cc1ccc(/C(O)=C/c2nc3cccnc3[nH]c2=O)cc1
NCI-H522 lung
  TGI: > 100 µM
U251 CNS
  TGI: > 100 µM
RXF 393 renal
  TGI: 80.1 µM
M14 melanoma
  TGI: > 100 µM
OVCAR-8 ovarian
  TGI: > 100 µM
NCI-H226 lung
  TGI: > 100 µM
UACC-257 melanoma
  TGI: > 100 µM
SN12C renal
  TGI: > 100 µM
ACHN renal
  TGI: > 100 µM
A498 renal
  TGI: > 100 µM

## Nc1ncnc2c1ncn2CCCC(c1ccccc1)P(=O)(O)O (configuration not stated)
NCI-H522 lung
  TGI: > 100 µM
U251 CNS
  TGI: > 100 µM
RXF 393 renal
  TGI: > 100 µM
OVCAR-8 ovarian
  TGI: > 100 µM
NCI-H226 lung
  TGI: > 100 µM
UACC-257 melanoma
  TGI: > 100 µM
SN12C renal
  TGI: > 100 µM
ACHN renal
  TGI: > 100 µM
A498 renal
  TGI: > 100 µM

## COc1cc(S(=O)(=O)Nc2ccc(-c3csc(N4C(=O)C(Cl)C4c4cccc(Oc5ccccc5)c4)n3)cc2)ccc1Cl (configuration not stated)
NCI-H522 lung
  TGI: 3.22 µM
RXF 393 renal
  TGI: 15.6 µM
M14 melanoma
  TGI: 52.4 µM
OVCAR-8 ovarian
  TGI: > 100 µM
NCI-H226 lung
  TGI: 39.8 µM
UACC-257 melanoma
  TGI: > 100 µM
SN12C renal
  TGI: 30.2 µM
ACHN renal
  TGI: 57.1 µM
A498 renal
  TGI: 64.8 µM

## O=C1C(C(c2ccc([N+](=O)[O-])cc2)N2CCOCC2)=C(O)C(c2ccccc2)N1c1ccccc1 (configuration not stated)
NCI-H522 lung
  TGI: > 10 µM
U251 CNS
  TGI: > 10 µM
RXF 393 renal
  TGI: > 10 µM
M14 melanoma
  TGI: > 10 µM
OVCAR-8 ovarian
  TGI: > 10 µM
NCI-H226 lung
  TGI: > 10 µM
UACC-257 melanoma
  TGI: > 10 µM
SN12C renal
  TGI: > 10 µM
ACHN renal
  TGI: > 10 µM
A498 renal
  TGI: > 10 µM

## C[N+](C)=c1ccc2nc3c(ccc4ccccc43)oc-2c1
NCI-H522 lung
  TGI: 8.07 µM
U251 CNS
  TGI: 29.5 µM
RXF 393 renal
  TGI: 26 µM
M14 melanoma
  TGI: 24.7 µM
OVCAR-8 ovarian
  TGI: 26 µM
NCI-H226 lung
  TGI: 33.5 µM
UACC-257 melanoma
  TGI: 16.4 µM
SN12C renal
  TGI: 31.8 µM
ACHN renal
  TGI: 26.7 µM
A498 renal
  TGI: 32.6 µM

## Nc1ncnc2c1sc(=S)n2-c1ccccc1
NCI-H522 lung
  TGI: > 100 µM
U251 CNS
  TGI: > 100 µM
RXF 393 renal
  TGI: > 100 µM
M14 melanoma
  TGI: > 100 µM
OVCAR-8 ovarian
  TGI: > 100 µM
NCI-H226 lung
  TGI: > 100 µM
UACC-257 melanoma
  TGI: > 100 µM
SN12C renal
  TGI: > 100 µM
ACHN renal
  TGI: > 100 µM
A498 renal
  TGI: > 100 µM

## CC(C(=O)NCCNC(=O)CCC(=O)N(C)O)C(=O)NCCNC(=O)CCC(=O)N(C)O
NCI-H522 lung
  TGI: > 100 µM
U251 CNS
  TGI: > 100 µM
RXF 393 renal
  TGI: > 100 µM
M14 melanoma
  TGI: > 100 µM
OVCAR-8 ovarian
  TGI: > 100 µM
NCI-H226 lung
  TGI: > 100 µM
UACC-257 melanoma
  TGI: > 100 µM
ACHN renal
  TGI: > 100 µM
A498 renal
  TGI: > 100 µM

## CC(C)(C)c1cc(C(=O)C2Cc3ccccc3C(=O)O2)cc(C(C)(C)C)c1O (configuration not stated)
NCI-H522 lung
  TGI: 27.8 µM
U251 CNS
  TGI: 22.2 µM
RXF 393 renal
  TGI: 27.7 µM
M14 melanoma
  TGI: 25.6 µM
OVCAR-8 ovarian
  TGI: 33.3 µM
NCI-H226 lung
  TGI: 35.5 µM
UACC-257 melanoma
  TGI: 23.9 µM
SN12C renal
  TGI: 26.5 µM
ACHN renal
  TGI: 40.3 µM
A498 renal
  TGI: 26.7 µM

## CCNC(=O)NNc1ncnc2c1c(-c1ccc(Cl)cc1)cn2-c1ccc(C)cc1
NCI-H522 lung
  TGI: 38.3 µM
U251 CNS
  TGI: 31.3 µM
RXF 393 renal
  TGI: 33.1 µM
M14 melanoma
  TGI: 32.3 µM
OVCAR-8 ovarian
  TGI: 28.8 µM
NCI-H226 lung
  TGI: 37.9 µM
UACC-257 melanoma
  TGI: 35.7 µM
SN12C renal
  TGI: 30.3 µM
ACHN renal
  TGI: 41.9 µM
A498 renal
  TGI: 30.6 µM

## CCOC(=O)C1(C#N)C2(C#N)C(N)=NC(ON=C(C)C)(ON=C(C)C)C12C#N (configuration not stated)
NCI-H522 lung
  TGI: > 100 µM
U251 CNS
  TGI: > 100 µM
RXF 393 renal
  TGI: > 100 µM
M14 melanoma
  TGI: > 100 µM
OVCAR-8 ovarian
  TGI: > 100 µM
NCI-H226 lung
  TGI: > 100 µM
UACC-257 melanoma
  TGI: > 100 µM
SN12C renal
  TGI: > 100 µM
ACHN renal
  TGI: > 100 µM
A498 renal
  TGI: > 100 µM

## CCCCCCCCCC(O)CC(=O)c1c(O)cccc1O (configuration not stated)
NCI-H522 lung
  TGI: 37.9 µM
U251 CNS
  TGI: > 100 µM
RXF 393 renal
  TGI: 34.8 µM
M14 melanoma
  TGI: 44.2 µM
OVCAR-8 ovarian
  TGI: 38.6 µM
NCI-H226 lung
  TGI: 34.9 µM
UACC-257 melanoma
  TGI: 38.7 µM
SN12C renal
  TGI: 63.9 µM
ACHN renal
  TGI: 53.7 µM
A498 renal
  TGI: 88.5 µM

## COc1cc(NS(C)(=O)=O)ccc1NCc1cnc2ccc3[nH]cccc3c12
NCI-H522 lung
  TGI: 39.9 µM
U251 CNS
  TGI: > 81.2 µM
RXF 393 renal
  TGI: 21.3 µM
M14 melanoma
  TGI: 31.4 µM
OVCAR-8 ovarian
  TGI: 75.7 µM
NCI-H226 lung
  TGI: 35.6 µM
UACC-257 melanoma
  TGI: 32 µM
SN12C renal
  TGI: 67.4 µM
ACHN renal
  TGI: 69.2 µM
A498 renal
  TGI: 59.2 µM
